# Patent publication US20240085425A1, “BIOMARKER AND APPLICATION THEREOF” (ADLAI NORTYE BIOPHARMA CO., LTD., priority 2022, published 2024)
# Test system: Wnt pathway TCF/LEF
# Assay: Colo205-LUC-TCF/LEF luciferase reporter assay with or without MG132
# Format: cell-based
# Conditions: Colo205-LUC-TCF/LEF cells, 4 hours
# Description: The Colo205-LUC-TCF/LEF cell line is a reporter tool cell stably transfected with the pGL4.49-LUC2-TCF/LEF vector, and its Wnt/β-catenin pathway is continuously activated. After adding inhibitor, the expression of firefly luciferase regulated by the TCF/LEF cis-element decreased, and after adding the detection substrate, the detected light signal decreased accordingly, thus the inhibitory effect of the compound was detected.
# Add 100 μL of the compound AN10250484 at a maximum concentration of 20 μM to each well of the 96-well cell culture plate, and make a 3-fold gradient dilution of the compound concentration. Then inoculate each well with 10,000 stable Colo205-LUC-TCF/LEF cells containing 2 μM MG132 (Proteasome inhibitor) (MCE: HY-13259) or 10,000 Colo205-LUC-TCF/LEF cells containing control solvents, which were treated accordingly as positive and negative control wells. Place the cells in a 5% CO2 cell incubator and incubate at 37° C. for 4 hours. After 4 hours, remove the culture medium, add 100 μL of reagent (Promega) containing the corresponding firefly luciferase substrate to each well, and measure the luciferase reporter gene activity. Use SpectraMax to read the luminescence intensity in full-wavelength mode.
structure (smiles),measurement,setting,value
Cc1nc(C(F)(F)F)ncc1Oc1ccc(CNc2nc(C)c3c(n2)N(C)[C@@H](C)C(=O)N3)cn1 [AN10250484],Inhibitory effect of the compound on the transcription of TCF/LEF after adding MG132,"2 μM MG132, FIG. 2",significantly reduced
same,"Transcriptional activity of Wnt pathway TCF/LEF (luciferase reporter), in words","control solvent, FIG. 2",inhibiting Wnt pathway TCF/LEF
